Source: paper PMC11477877, “Carbohydrate-Binding Mechanism of the Coagulant Lectin from Moringa oleifera Seeds (cMoL) Is Related to the Dimeric Protein Structure” (Molecules, 2024)

Target: T1, cMoL (coagulant lectin from Moringa oleifera seeds) (Moringa oleifera, UniProt Z9EIH6G9R5)
T1 construct: native, purified from seeds (ammonium sulfate, guar gel column); 101 residues; homodimer
T1 sequence (Z9EIH6G9R5 1-101): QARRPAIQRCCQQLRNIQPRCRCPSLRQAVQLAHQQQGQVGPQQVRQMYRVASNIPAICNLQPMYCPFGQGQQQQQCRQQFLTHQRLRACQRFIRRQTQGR
Assay: intrinsic fluorescence quenching, modified Stern-Volmer
Format: binding
Details: 298 K; water; excitation 280 nm; Hill h ~2 (dimer)
Description: intrinsic fluorescence quenching, modified Stern-Volmer on cMoL (coagulant lectin from Moringa oleifera seeds)

Ka (10^2 M^-1) | SMILES
0.1239 ± 0.00004 10^2 M^-1 | OC[C@H]1OC(O)[C@H](O)[C@@H](O)[C@H]1O (some centres unmarked) [galactose]
0.2979 ± 0.00007 10^2 M^-1 | OC[C@H]1OC(O)[C@H](O)[C@@H](O)[C@@H]1O (some centres unmarked) [glucose]
